Measured values: ChEMBL document CHEMBL3045824, “Unique neonicotinoid binding conformations conferring selective receptor interactions” (J Agric Food Chem, 2011)

Columns and labels:
[1] = target: Neuronal acetylcholine receptor subunit alpha-4 (Gallus gallus, UniProt P09482+P09484); experiment: Binding affinity to recombinant Gallus gallus (chicken) alpha4beta2 nicotinic acetylcholine receptor assessed as [3H]NIC binding by radioligand binding assay
[2] = target: T1, Acetylcholine receptor subunit beta-like 2 (Drosophila melanogaster, UniProt P25162); experiment: Binding affinity to Drosophila brain nicotinic acetylcholine receptor assessed as [3H]IMI binding by radioligand binding assay
T1 sequence (P25162 whole entry): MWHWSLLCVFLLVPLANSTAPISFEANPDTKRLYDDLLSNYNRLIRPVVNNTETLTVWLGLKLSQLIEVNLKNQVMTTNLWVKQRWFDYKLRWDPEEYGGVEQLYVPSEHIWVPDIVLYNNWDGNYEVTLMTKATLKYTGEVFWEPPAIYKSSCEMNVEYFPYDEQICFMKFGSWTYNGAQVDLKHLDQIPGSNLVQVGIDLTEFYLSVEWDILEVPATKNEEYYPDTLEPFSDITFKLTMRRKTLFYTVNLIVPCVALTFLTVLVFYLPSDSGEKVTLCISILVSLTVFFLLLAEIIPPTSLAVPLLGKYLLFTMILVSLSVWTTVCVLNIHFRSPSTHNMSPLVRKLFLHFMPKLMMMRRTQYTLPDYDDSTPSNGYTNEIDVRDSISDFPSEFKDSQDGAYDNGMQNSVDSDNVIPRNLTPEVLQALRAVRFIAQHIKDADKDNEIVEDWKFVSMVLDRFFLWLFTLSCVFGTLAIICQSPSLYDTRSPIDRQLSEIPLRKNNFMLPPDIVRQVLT

[3] = target: Acetylcholine-binding protein (Lymnaea stagnalis, UniProt P58154); experiment: Binding affinity to freshwater snail Lymnaea stagnalis AChBP assessed as [3H]EPI binding by radioligand binding assay
[4] = target: Soluble acetylcholine receptor (Aplysia californica, UniProt Q8WSF8, Y55W); experiment: Binding affinity to salt water mollusc Aplysia californica AChBP Y55W mutant assessed as [3H]acetamiprid binding by radioligand binding assay

Sequence of Acetylcholine-binding protein (P58154 whole entry): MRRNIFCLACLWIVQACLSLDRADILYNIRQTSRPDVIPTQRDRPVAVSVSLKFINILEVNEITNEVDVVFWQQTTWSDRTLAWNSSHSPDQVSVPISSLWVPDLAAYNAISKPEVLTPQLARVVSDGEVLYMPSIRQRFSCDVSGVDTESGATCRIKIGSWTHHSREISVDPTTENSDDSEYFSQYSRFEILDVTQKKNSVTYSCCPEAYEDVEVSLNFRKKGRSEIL
Sequence of Neuronal acetylcholine receptor subunit alpha-4 (P09482 whole entry, one chain of several): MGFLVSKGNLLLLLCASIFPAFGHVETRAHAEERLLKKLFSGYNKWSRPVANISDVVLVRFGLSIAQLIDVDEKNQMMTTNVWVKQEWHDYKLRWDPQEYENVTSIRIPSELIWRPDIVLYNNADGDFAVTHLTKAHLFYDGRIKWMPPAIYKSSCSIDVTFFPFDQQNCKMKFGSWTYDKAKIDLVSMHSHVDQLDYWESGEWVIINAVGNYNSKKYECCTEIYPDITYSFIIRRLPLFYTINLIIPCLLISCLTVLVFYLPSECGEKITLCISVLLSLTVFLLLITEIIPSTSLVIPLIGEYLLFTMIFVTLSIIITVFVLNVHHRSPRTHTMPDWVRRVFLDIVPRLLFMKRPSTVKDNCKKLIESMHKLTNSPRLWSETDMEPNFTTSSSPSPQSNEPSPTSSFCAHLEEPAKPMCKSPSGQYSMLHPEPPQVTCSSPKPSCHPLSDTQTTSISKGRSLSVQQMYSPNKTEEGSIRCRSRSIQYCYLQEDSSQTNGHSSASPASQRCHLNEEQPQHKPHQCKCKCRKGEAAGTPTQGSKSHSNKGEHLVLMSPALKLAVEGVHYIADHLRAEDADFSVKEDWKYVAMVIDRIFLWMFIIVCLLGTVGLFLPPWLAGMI

| SMILES | Ki [1] [nM] | Ki [2] [nM] | Ki [3] [nM] | Ki [4] [nM] |
| --- | --- | --- | --- | --- |
| N=C1SCCN1Cc1ccc(Cl)nc1 [DESCYANOTHIACLOPRID] | 1.2 | 130 | 16 | 0.6 |
| N=C1NCCN1Cc1ccc(Cl)nc1 [DESNITROIMIDACLOPRID] | 2.2 | 1000 | 18 | 15 |
| CN1CCC[C@H]1c1cccnc1 [NICOTINE] | 1.9 | 2700 |  | 30 |
| C/C(=N\C#N)N(C)Cc1ccc(Cl)nc1 | 680 | 7.2 | 1200 | 32 |
| Clc1ccc(C2CC3CCC2N3)cn1 (racemic) [EPIBATIDINE] |  | 290 | 0.3 | 1 |
| O=[N+]([O-])NC1=NCCN1Cc1ccc(Cl)nc1 [IMIDACLOPRID] | 970 | 3 |  | 19 |
| O=[N+]([O-])/C=C1\NCCN1Cc1ccc(Cl)nc1 | 60 | 0.12 |  | 1.7 |
| N#C/N=C1\SCCN1Cc1ccc(Cl)nc1 [THIACLOPRID] | 240 | 1.2 |  | 3.9 |
